Assay results: US20210388012A1, “METHODS AND COMPOSITIONS FOR PRODRUG FORMS OF SPECTINOMYCIN AND SPECTINAMIDE ANALOGS” (priority 2018, published 2021)

Assays:
[1] = Single ascending maximum tolerated dose study in rat; format: in vivo; details: female Sprague-Dawley rats
Procedure: Several compounds were assessed in single ascending maximum tolerated studies. The compounds assessed were 1810; 3408, a prodrug form of compound 1810; 1599, a chloro homologue of compound 1810; and gentamicin, an antimicrobial associated with ototoxicity. The study was carried out in female Sprague-Dawley rats (n=3 per group). All the drug solutions were prepared in water and PLASMA-LYTE A (50:50; […] was obtained from Baxter Healthcare Corporation, Deerfield, Ill.). Each group of rats were fasted overnight with access to water aJ libitum and a fixed volume (2 mL) of drug-containing solution was administered via the jugular vein catheter. Food was withheld for 3 h post dosing. Different phases of the study were classified on five different speeds of i.v, administration; Phase 1: 5 sec, Phase 2: 30 sec, Phase 3: 5 min, Phase 4: 15 min, Phase 5: 30 min. In the first and second phases, a set of predefined dose levels: 10, 25, 50, 75, 100, 150, 300, 350, 400, 450 and 500 mg/kg. Escalation to the next higher dose was conditional upon absence of signs of acute toxicity following the immediate lower dose over a 24 h period. All animals were monitored by visual inspection focused on focus on changes in skin, fur, eyes, and also respiratory, circulatory, autonomic and central nervous systems, along with somatomotor activity and behavior pattern, including tremors, convulsions, salivation, diarrhea, lethargy, sleep and coma. A dose level was deemed an MTD if […] of acute toxicity were observed and that dose was chosen for the second phase of the study where the process was repeated to determine a toxic dose. For third, fourth and fifth phases, dosing solution was infused by a Instech tethering system (Instech Laboratories Inc., Plymouth Meeting, Pa.) where the animal is freely moving within its cage, the catheter connection is held in place by a vascular access harness and a swivel system, and the drug administration is performed via a Harvard Apparatus programmable syringe pump. After dosing, the tether was removed immediately after completion of the infusion and the catheter was flushed with (100 μL) PlasmaLyte A. Surviving animals from the previous dose with no signs of toxicity were re-used in either phases of these studies upon allowing a one day drug washout period.

[2] = Metabolic stability, human liver microsomal degradation; format: in vitro ADME; details: human liver microsomes; read-out: Metabolic Stability (Human) t½ (converted)
Procedure: (§1) LC-MS Method 2. Chromatographic separation was performed on an Acquity UPLC BEH C18 1.7 μm, 2.1×50 mm column (Waters Corporation, Milford, Mass.) or a Luna Omega 1.6 μm C18, 2.1×50 mm column (Phenomenex, Torrance, Calif.) using an Acquity ultra performance liquid chromatography system. Data were acquired using Masslynx v. 4.1 and analyzed using the Openlynx software suite. This was coupled to an Acquity photodiode array detector, which acquired UV data from 210-400 nm. The flow was then split, with half directed to an evaporative light scattering detector (ELSD) and half to an SQ mass spectrometer. The total flow rate was 1 mL/min. The sample injection volume was 10 μL. The UPLC column was maintained at 60° C. and the gradient program with either basic mobile phase (A1, 10 mM ammonium bicarbonate in MilliQ H2O; B1, 0.1% formic acid in acetonitrile) or formic mobile phase (A1, 0.1% formic acid in MilliQ H2O; B1, 0.1% formic acid in acetonitrile) based on the compounds' physical and chemical properties. The mass spectrometer was operated in positive-ion mode with electrospray ionization. The conditions were as follows; capillary voltage 3.4 kV, cone voltage 30 V, source temperature 130° C., desolvation temperature 400° C., desolvation gas 800 L/hr, cone gas 100 L/hr. A full scan range from m/z=110-1000 in 0.2 s was used to acquire MS data. The ELSD-drift tube temperature was set at 52° C.
The stability of compounds to human liver microsomal degradation, i.e., metabolic stability, was determined as described previously (see North, E. J., et al, Bioorg. Med. Chem. (2013) 21(9):2587-2599) and the rate of degradation was monitored by LC-MS analysis using multiple sampled time points as described herein above in LC-MS Method 2. Metabolic stability was evaluated via the half-life from least squares fit of the concentration remaining at the time points based on first-order kinetics.

in vitro = in vitro ADME; details: human plasma, 37° C., read-out: Plasma Stability (Human) t½ (converted)
Procedure: as §1
Plasma stability was determined after incubation in human plasma for various incubation time, i.e., incubation times of 0, 3, 24, and 48 hour were used. DMSO stock solutions of test compounds were prepared at 10 mM concentration. 1.8 μL of each test compound was each added directly to 1.8 mL of human plasma to get the final concentration of 10 μM. This compound/matrix was mixed and 70 μL was transferred to 4 time points plates (each in triplicate wells). […] The plasma stability was evaluated via the half-life from least-squares fit of the multiple time points based on first-order kinetics.

| Molecule | MTD ([1]; 5 second IV bolus) [mg/kg] | MTD ([1]; 30 second IV bolus) [mg/kg] | MTD ([1]; 5 minute IV infusion) [mg/kg] | MTD ([1]; 15 minute IV infusion) [mg/kg] | MTD ([1]; 30 minute IV infusion) [mg/kg] | half-life [2] [h] | half-life at 10 µM (in vitro) [h] |
| --- | --- | --- | --- | --- | --- | --- | --- |
| gentamicin [reference compound] | 100 | 100 | 200 | 300 | 400 |  |  |
| CCOP(=O)(OCC)Oc1ccc(CC(=O)N[C@@H]2C[C@@H](C)O[C@H]3O[C@@H]4[C@@H](O)[C@H](NC)[C@H](O)[C@H](NC)[C@H]4O[C@]32O)nc1 [Compound 3906, Diethyl (6-(2-oxo-2-(((2R,4R,4aS, 5aR,6S,7S,8R,9S,9aR,10aS)-4a,7,9-trihydroxy-2-methyl-6,8-bis(methylamino)decahydro-2H-benzo[b]pyrano[2,3-e][1,4]dioxin-4-yl)amino)ethyl)pyridin-3-yl) phosphate] |  |  |  |  |  | 3.61 | 19.5 |
| CN[C@@H]1[C@H](O)[C@H](NC)[C@H]2O[C@]3(O)[C@H](O[C@@H]2[C@H]1O)O[C@H](C)C[C@@]3(O)CNCc1ccc(F)c(OP(=O)(O)O)c1 [Compound 3959, 2-fluoro-5-(((((2R,4R,4aS,5aR,6S,7S,8R,9S,9aR,10aS)-4,4a,7,9-tetrahydroxy-2-methyl-6,8-bis(methylamino)decahydro-2H-benzo[b]pyrano[2,3-e][1,4]dioxin-4-yl)methyl)amino)methyl)phenyl dihydrogen phosphate] |  |  |  |  |  | 1.84 |  |
| CN[C@@H]1[C@H](O)[C@H](NC)[C@H]2O[C@]3(O)[C@H](O[C@@H]2[C@H]1O)O[C@H](C)C[C@H]3NC(=O)Cc1ccc(-c2ccc(OP(=O)(O)O)cc2)cn1 [Compound 4074, 4-(6-(2-oxo-2-(((2R, 4R, 4aS, 5aR, 6S, 7S, 8R, 9S, 9aR, 10aS)-4a,7,9-trihydroxy-2-methyl-6,8-bis(methyl-amino)decahydro-2H-benzo[b]pyrano[2,3-e][1,4]dioxin-4-yl)amino)ethyl)pyridin-3-yl)phenyl dihydrogen phosphate] |  |  |  |  |  | 2.98 | < 0.0833 |
